Results from patent US9763957B2, “Autotaxin inhibitors” (Novartis AG, priority 2013, dated 2017).

What follows are compounds tested against Recombinant human ATX (Homo sapiens (Human), UniProt Q13822) (assay: ATX inhibition assay (choline release, Amplex Red fluorescence)). Settings: ATX 10 nM, LPC 18:1 10 μM, 37° C., 20 min pre-incubation; mean of n≧2.
Assay type: biochemical
Procedure: Reagents—LPC (oleoyl (18:1)) was purchased from Avanti Polar Lipids (Alabaster, Ala.) and solubilized in methanol to 20 mM. Amplex Red was obtained from Invitrogen Life Technologies (Paisley, UK) and dissolved in DMSO to 10 mM. Choline oxidase and horseradish peroxidase (HRP) were obtained from Sigma Aldrich (Dorset, UK) and dissolved in HBSS to 20 U/ml and 200 U/ml respectively. All reagents were stored at −20° C. in single use aliquots. All experimental measurements were performed in assay buffer made up immediately prior to use (HBSS, 0.01% BSA essentially fatty acid free).
PerkinElmer EnVision (Fluorescence Intensity/Absorbance Monochromator) or Tecan Infinite 200 PRO series plate reader was used to detect change in fluorescent intensity.
Assessing ATX inhibition—ATX activity was determined by measurement of released choline in reactions containing ATX (10 nM), choline oxidase (0.1 U/ml), HRP (100 U/ml), amplex red (50 μM) and LPC 18:1 (10 μM). Compounds of the invention were prepared as 10 point serial dilutions from 1 μM in duplicate and pre-incubated with ATX at 37° C. for 20 minutes prior to the addition of remaining reagents. The liberated choline was measured from changes in fluorescence intensity (λex 530 nm, λem 590 nm) of the product resurofin at 37° C. every 2 minutes over a 40-minute period. ATX activity was measured as a slope of the linear portion of the progress curve, typically between 14 to 24 minutes.
Data analysis—Slope data was exported to Graphpad prism (Graphpad software, San Diego, Calif.) where data was fitted to equation 1. Y=Bottom+(Top-Bottom)/(1+10^((Log IC50−X)*HillSlope)) Equation 1: […]

SMILES	IC50
Cc1nnn(Cc2cc(OC(F)(F)F)ccc2/C=C/C(=O)N2CCC(c3noc(C)n3)CC2)n1 [Example 3, (E)-1-(4-(5-Methyl-1,2,4-oxadiazol-3-yl)piperidin-1-yl)-3-(2-((5-methyl-2H-tetrazol-2-yl)methyl)-4-(trifluoromethoxy)phenyl)prop-2-en-1-one]	12 nM
Cc1nnn(Cc2cc(C(F)(F)F)ccc2/C=C/C(=O)N2CCC(c3noc(C)n3)CC2)n1 [Example 4, (E)-1-(4-(5-Methyl-1,2,4-oxadiazol-3-yl)piperidin-1-yl)-3-(2-((5-methyl-2H-tetrazol-2-yl)methyl)-4-(trifluoromethyl)phenyl)prop-2-en-1-one]	5.8 nM
CNC(=O)[C@@H]1CCCCN1C(=O)/C=C/c1ccc(C(F)(F)F)cc1Cn1nnc(C)n1 [Example 6, (S,E)-N-Methyl-1-(3-(2-((5-methyl-2H-tetrazol-2-yl)methyl)-4-(trifluoromethyl)phenyl)acryloyl)piperidine-2-carboxamide]	18 nM
Cc1nnn(Cc2cc(Cl)ccc2/C=C/C(=O)N2CC[C@@H](c3nnc(C)o3)C2)n1 [Example 7, (R,E)-3-(4-Chloro-2-((5-methyl-2H-tetrazol-2-yl)methyl)phenyl)-1-(3-(5-methyl-1,3,4-oxadiazol-2-yl)pyrrolidin-1-yl)prop-2-en-1-one]	140 nM
Cc1nnn(Cc2cc(Cl)ccc2/C=C/C(=O)N2CCC[C@H]2c2nnc(C)o2)n1 [Example 8, (S,E)-3-(4-Chloro-2-((5-methyl-2H-tetrazol-2-yl)methyl)phenyl)-1-(2-(5-methyl-1,3,4-oxadiazol-2-yl)pyrrolidin-1-yl)prop-2-en-1-one]	378 nM
Cc1cn(C2CCN(C(=O)/C=C/c3ccc(Cl)cc3Cn3nnc(C)n3)CC2)nn1 [Example 9, (E)-3-(4-Chloro-2-((5-methyl-2H-tetrazol-2-yl)methyl)phenyl)-1-(4-(4-methyl-1H-1,2,3-triazol-1-yl)piperidin-1-yl)prop-2-en-1-one]	100 nM
Cc1ncn(C2CCN(C(=O)/C=C/c3ccc(Cl)cc3Cn3nnc(C)n3)CC2)n1 [Example 10, (E)-3-(4-Chloro-2-((5-methyl-2H-tetrazol-2-yl)methyl)phenyl)-1-(4-(3-methyl-1H-1,2,4-triazol-1-yl)piperidin-1-yl)prop-2-en-1-one]	40 nM
Cc1nnn(Cc2cc(Cl)ccc2/C=C/C(=O)N2CCC(n3ncnc3C)CC2)n1 [Example 11, (E)-3-(4-Chloro-2-((5-methyl-2H-tetrazol-2-yl)methyl)phenyl)-1-(4-(5-methyl-1H-1,2,4-triazol-1-yl)piperidin-1-yl)prop-2-en-1-one]	73 nM
Cc1nnn(Cc2cc(Cl)ccc2/C=C/C(=O)N2CCC(n3nnnc3C)CC2)n1 [Example 12, (E)-3-(4-Chloro-2-((5-methyl-2H-tetrazol-2-yl)methyl)phenyl)-1-(4-(5-methyl-1H-tetrazol-1-yl)piperidin-1-yl)prop-2-en-1-one]	157 nM
Cc1nnc(Cc2cc(Cl)ccc2/C=C/C(=O)N2CCC(Cc3nnc(C)o3)CC2)o1 [Example 13, (E)-3-(4-Chloro-2-((5-methyl-1,3,4-oxadiazol-2-yl)methyl)phenyl)-1-(4-((5-methyl-1,3,4-oxadiazol-2-yl)methyl)piperidin-1-yl)prop-2-en-1-one]	2360 nM
Cc1nnn(Cc2cc(Cl)ccc2/C=C/C(=O)N2CCC(O)(Cn3cc(C(=O)N4CCOCC4)cn3)CC2)n1 [Example 14, (E)-3-(4-Chloro-2-((5-methyl-2H-tetrazol-2-yl)methyl)phenyl)-1-(4-hydroxy-4-((4-(morpholine-4-carbonyl)-1H-pyrazol-1-yl)methyl)piperidin-1-yl)prop-2-en-1-one]	12 nM
Cc1nnn(Cc2cc(Cl)ccc2/C=C/C(=O)N2CCC(O)(Cn3cc(C(=O)N(C)C)cn3)CC2)n1 [Example 15, (E)-1-((1-(3-(4-Chloro-2-((5-methyl-2H-tetrazol-2-yl)methyl)phenyl)acryloyl)-4-hydroxypiperidin-4-yl)methyl)-N,N-dimethyl-1H-pyrazole-4-carboxamide]	62 nM
Cc1nnn(Cc2cc(Cl)ccc2/C=C/C(=O)N2CCC(O)(Cn3cc(C(=O)N4CCCCC4)cn3)CC2)n1 [Example 16, (E)-3-(4-Chloro-2-((5-methyl-2H-tetrazol-2-yl)methyl)phenyl)-1-(4-hydroxy-4-((4-(piperidine-1-carbonyl)-1H-pyrazol-1-yl)methyl)piperidin-1-yl)prop-2-en-1-one]	11 nM
Cc1nnn(Cc2cc(Cl)ccc2/C=C/C(=O)N2CCC(n3nnc(C)n3)CC2)n1 [Example 17, (E)-3-(4-Chloro-2-((5-methyl-2H-tetrazol-2-yl)methyl)phenyl)-1-(4-(5-methyl-2H-tetrazol-2-yl)piperidin-1-yl)prop-2-en-1-one]	24 nM
Cc1nnn(Cc2cc(Cl)ccc2/C=C/C(=O)N2CCC(O)(Cn3cc(C(F)(F)F)cn3)CC2)n1 [Example 18, (E)-3-(4-Chloro-2-((5-methyl-2H-tetrazol-2-yl)methyl)phenyl)-1-(4-hydroxy-4-((4-(trifluoromethyl)-1H-pyrazol-1-yl)methyl)piperidin-1-yl)prop-2-en-1-one]	37 nM
Cc1nnn(Cc2cc(Cl)ccc2/C=C/C(=O)N2CCC(c3noc(C)n3)CC2)n1 [Example 19, (E)-3-(4-Chloro-2-((5-methyl-2H-tetrazol-2-yl)methyl)phenyl)-1-(4-(5-methyl-1,2,4-oxadiazol-3-yl)piperidin-1-yl)prop-2-en-1-one]	31 nM
Cc1nnn(Cc2cc(Cl)ccc2/C=C/C(=O)N2CCC(CCc3nnc(C)o3)CC2)n1 [Example 20, (E)-3-(4-Chloro-2-((5-methyl-2H-tetrazol-2-yl)methyl)phenyl)-1-(4-(2-(5-methyl-1,3,4-oxadiazol-2-yl)ethyl)piperidin-1-yl)prop-2-en-1-one]	163 nM
Cc1noc(Cc2cc(Cl)ccc2/C=C/C(=O)N2CCC(Cc3nnc(C)o3)CC2)n1 [Example 21, (E)-3-(4-Chloro-2-((3-methyl-1,2,4-oxadiazol-5-yl)methyl)phenyl)-1-(4-((5-methyl-1,3,4-oxadiazol-2-yl)methyl)piperidin-1-yl)prop-2-en-1-one]	208 nM
Cc1nnn(Cc2cc(Cl)ccc2/C=C/C(=O)N2CCC(n3nccn3)CC2)n1 [Example 22, (E)-1-(4-(2H-1,2,3-Triazol-2-yl)piperidin-1-yl)-3-(4-chloro-2-((5-methyl-2H-tetrazol-2-yl)methyl)phenyl)prop-2-en-1-one]	26 nM
Cc1nnn(Cc2cc(Cl)ccc2/C=C/C(=O)N2CCC(c3ncc(C)o3)CC2)n1 [Example 24, (E)-3-(4-Chloro-2-((5-methyl-2H-tetrazol-2-yl)methyl)phenyl)-1-(4-(5-methyloxazol-2-yl)piperidin-1-yl)prop-2-en-1-one]	4 nM
Cc1cnn(C2CCN(C(=O)/C=C/c3ccc(Cl)cc3Cn3nnc(C)n3)CC2)n1 [Example 25, (E)-3-(4-Chloro-2-((5-methyl-2H-tetrazol-2-yl)methyl)phenyl)-1-(4-(4-methyl-2H-1,2,3-triazol-2-yl)piperidin-1-yl)prop-2-en-1-one]	8.5 nM
Cc1nnn(Cc2cc(Cl)ccc2/C=C/C(=O)N2CCC(CCCc3nnc(C)o3)CC2)n1 [Example 26, (E)-3-(4-Chloro-2-((5-methyl-2H-tetrazol-2-yl)methyl)phenyl)-1-(4-(3-(5-methyl-1,3,4-oxadiazol-2-yl)propyl)piperidin-1-yl)prop-2-en-1-one]	31 nM
Cc1nnn(Cc2cc(Cl)ccc2/C=C/C(=O)N2CCC(c3coc(C)n3)CC2)n1 [Example 27, (E)-3-(4-Chloro-2-((5-methyl-2H-tetrazol-2-yl)methyl)phenyl)-1-(4-(2-methyloxazol-4-yl)piperidin-1-yl)prop-2-en-1-one]	59 nM
Cc1cnn(C2CCN(C(=O)/C=C/c3ccc(Cl)cc3Cn3nnc(C)n3)CC2)c1 [Example 28, (E)-3-(4-Chloro-2-((5-methyl-2H-tetrazol-2-yl)methyl)phenyl)-1-(4-(4-methyl-1H-pyrazol-1-yl)piperidin-1-yl)prop-2-en-1-one]	6.3 nM
COC(=O)C1CCCCN1C(=O)/C=C/c1ccc(Cl)cc1Cn1nnc(C)n1 (stereo not drawn) [Example 29, (E)-Methyl 1-(3-(4-Chloro-2-((5-methyl-2H-tetrazol-2-yl)methyl)phenyl)acryloyl) piperidine-2-carboxylate]	32 nM
CCOC(=O)c1cnn(CC2(O)CCN(C(=O)/C=C/c3ccc(Cl)cc3Cn3nnc(C)n3)CC2)c1 [Example 32, (E)-Ethyl 1-((1-(3-(4-chloro-2-((5-methyl-2H-tetrazol-2-yl)methyl)phenyl)acryloyl)-4-hydroxypiperidin-4-yl)methyl)-1H-pyrazole-4-carboxylate]	3.5 nM
Cc1cnn(CCC2CCN(C(=O)/C=C/c3ccc(Cl)cc3Cn3nnc(C)n3)CC2)c1 [Example 33, (E)-3-(4-Chloro-2-((5-methyl-2H-tetrazol-2-yl)methyl)phenyl)-1-(4-(2-(4-methyl-1H-pyrazol-1-yl)ethyl)piperidin-1-yl)prop-2-en-1-one]	53 nM
